# Data as given in patent US10772928B2, “Modulation and detection of a neuronal alternative splicing regulatory network for treatment and diagnosis of neurological disorders” (The Governing Council of the University of Toronto, priority 2014, dated 2020).
# “Also recorded” adds a separate entry of the source. Peptide text beside a SMILES is read from it. * marks the point of attachment. Cbz = O=C(OCc1ccccc1)*
# Tests used:
# nSR100 [1] = experiment: nSR100 protein (western blot) and mRNA (qRT-PCR) levels in KCl-depolarized DIV11 cortical neurons; type: cell-based, mouse
# Text: A) Overlap between microexons that are skipped in humans with ASD (upper set), skipped upon neuronal depolarization (lower left set) and nSR100-regulated microexons (lower right set). B) Microexons were plotted based on their PSI difference between depolarized and resting wild-type neurons (X-axis), and between nSR100^Δ7-8/Δ7-8 and nSR100^+/+ mice (Y-axis). C) Cumulative distribution plots indicating the position of the first UGC motif within 200 nt upstream of neuronal activity-regulated microexons (dashed curve) or longer cassette exons (thick solid curve) vs. non-neural alternative cassette exons (light solid curve). The number of exons used to analyze each subgroup is shown in parentheses. D) Western blot on KCl-treated DIV11 cortical neurons (left panel) and quantification of nSR100 protein level (right panel). E) RT-PCR showing increased intron retention and microexon inclusion in nSR100 transcripts early after depolarization of DIV11 cortical neurons. […] G) Representative RT-PCRs on nuclear and cytosolic fractions (left panel) to assess localization of nSR100 transcripts in three replicates of cultured DIV4 cortical neurons with qRT-PCR quantification of the abundance of nSR100 isoforms harboring the retained intron, normalized to GAPDH levels in the correspondent cell fractions from six replicates (right panel). […]
# [2] = tested on: hippocampal mouse neurons; experiment: RNA-Seq analysis of alternative splicing events after KCl depolarization of cultured hippocampal neurons (Table 3); type: cell-based; conditions: for number of alternative splicing events displaying changes: change of at least 15
# Procedure: A) Number of alternative splicing events with PSI, percent intron retention (PIR) or percent splice site usage (PSU) changes of at least 15, 30 minutes and 3 hours after neuronal depolarization. B) Microexons and cassette exons are preferentially skipped following neuronal depolarization, whereas retained introns show no directionality. C) Gene ontology analysis of microexons and cassettes exons with ΔPSI≥15 during neuronal depolarization.
# A systematic analysis of alternative splicing events modulated by neuronal activity, including microexons, longer cassette exons, retained introns and alternative 5′ and 3′ splice sites was first performed. Cultured wild-type hippocampal mouse neurons were depolarized using KCl treatment for thirty minutes or three hours and RNA-Seq analysis was performed on these samples. […] Among the additional alternative splicing events affected by neuronal depolarization were 887 (of 10830 detected alternative cassette exons>27 nt; 8.1%) alternative cassette exons and 672 retained introns. Longer alternative cassette exons were also primarily skipped in depolarized neurons (747/887; 84.2%) (FIG. 42B). Genes harboring depolarization-dependent alternative cassette exons have functions related to signal transduction and transcription regulation whereas those with microexons relate primarily to vesicle transport (FIG. 42C).
# nSR100 [3] = experiment: nSR100 protein levels by western blot in dox-inducible, nSR100-expressing 293T cells; type: cell-based, human; conditions: versus DMSO or control siRNAs
# Text: Tubulin detection was used as loading control.
# RT-PCR assays were used to confirm FBXW11 knockdown. nSR100 protein levels were monitored using a western blot. Tubulin and 1-actin detection was used to control for loading.
# By applying affinity purification coupled to mass-spectrometry (AP-MS), several interaction nSR100 partner proteins were detected that provide insight into mechanisms of post-translational regulation of nSR100 levels. For example, AP-MS experiments identified the F-box protein FBXW11 (also known as 1TRCP2) as an nSR100 interaction partner. The Skp-Cullin-F-box (SCF) complex is a multi-protein complex that regulates cellular protein levels via ubiquitin-mediated proteolysis. FBXW11 is an E3 ubiquitin ligase that confers specificity to the SCF complex by recognizing a particular phosphodegron on targets. In addition, Skp1, which is required for recognizing and binding FBXW11, was also detected in nSR100 AP-MS experiments. Phosphorylation of consensus binding sites for F-box proteins, including FBXW11, is typically required for targeting of proteins for degradation by the proteosomal pathway. The set of nSR100 interaction partners identified by AP-MS included several kinases such as PLK1, GSK3B, CSNK2, CSNK1, CDK1 and SRPK1, as well as other kinases that may control nSR100 levels and or activity.
# nSR100 [4] = molecular target: T1, nSR100 (Homo sapiens, UniProt A7MD48); experiment: Regulation by nSR100: microexon inclusion level (PSI) by RNA-Seq in human 293T cells overexpressing nSR100 (Table 1); type: cell-based; conditions: YES/NO
# T1 construct: expressed in transfected cells; host or cells: 293T (human kidney cells), doxycycline-inducible nSR100 expression
# T1 sequence (A7MD48 1-611): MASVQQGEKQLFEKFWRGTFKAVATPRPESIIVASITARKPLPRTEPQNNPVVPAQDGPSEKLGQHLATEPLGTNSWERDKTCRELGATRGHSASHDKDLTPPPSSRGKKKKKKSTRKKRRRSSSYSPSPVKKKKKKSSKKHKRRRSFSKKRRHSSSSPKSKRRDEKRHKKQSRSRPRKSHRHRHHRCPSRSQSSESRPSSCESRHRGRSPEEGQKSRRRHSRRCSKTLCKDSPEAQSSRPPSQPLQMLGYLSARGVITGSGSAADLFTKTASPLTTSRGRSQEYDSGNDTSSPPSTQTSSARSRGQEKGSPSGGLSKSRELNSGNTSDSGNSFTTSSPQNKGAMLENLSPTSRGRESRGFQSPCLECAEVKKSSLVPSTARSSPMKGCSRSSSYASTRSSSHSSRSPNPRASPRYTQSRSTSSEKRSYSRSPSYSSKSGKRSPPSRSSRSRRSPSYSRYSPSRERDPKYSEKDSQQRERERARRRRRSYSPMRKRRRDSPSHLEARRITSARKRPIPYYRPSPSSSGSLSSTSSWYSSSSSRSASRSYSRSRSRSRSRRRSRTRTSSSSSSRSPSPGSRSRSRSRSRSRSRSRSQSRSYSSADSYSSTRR
# Text: A) Percent of neural-regulated exons within each length class that is affected by nSR100 expression in human 293T kidney cells (absolute ΔPSI>15, light grey or absolute ΔPSI>25, dark grey). p-values correspond to two-sided proportion tests of affected vs. non-affected events. B) Average normalized density of nSR100 cross-linked sites in 200 nt windows encompassing neural-regulated exons of different length classes. FPB, Fragments Per Billion. […]
# (§1) An RNA-Seq analysis pipeline was developed to detect and quantify all AS event classes involving all hypothetically possible splice junctions formed by the usage of annotated and unannotated splice sites, including those that demarcate microexons. […]
# (§2) A multi-module analysis pipeline was developed that uses RNA-Seq, expressed sequence tag (EST) and cDNA data, as well as gene annotations and evolutionary conservation, to assemble libraries of exon-exon-junctions (EEJs) for subsequent read alignment to detect and quantify AS events in RNA-Seq data. […] Alt3 or Alt5 events were quantified based on the fraction of reads supporting the usage of each alternative splice site. Intron retention was analyzed as recently described (Braunschweig et al., 2014). […]
# nSR100 [5] = molecular target: T2, nSR100 (Mus musculus, UniProt Q8BKA3); experiment: Regulation by nSR100: microexon inclusion level (PSI) by RNA-Seq in mouse N2A cells depleted of nSR100 (Table 2); type: cell-based
# T2 construct: host or cells: mouse N2A cells
# T2 sequence (Q8BKA3 1-608): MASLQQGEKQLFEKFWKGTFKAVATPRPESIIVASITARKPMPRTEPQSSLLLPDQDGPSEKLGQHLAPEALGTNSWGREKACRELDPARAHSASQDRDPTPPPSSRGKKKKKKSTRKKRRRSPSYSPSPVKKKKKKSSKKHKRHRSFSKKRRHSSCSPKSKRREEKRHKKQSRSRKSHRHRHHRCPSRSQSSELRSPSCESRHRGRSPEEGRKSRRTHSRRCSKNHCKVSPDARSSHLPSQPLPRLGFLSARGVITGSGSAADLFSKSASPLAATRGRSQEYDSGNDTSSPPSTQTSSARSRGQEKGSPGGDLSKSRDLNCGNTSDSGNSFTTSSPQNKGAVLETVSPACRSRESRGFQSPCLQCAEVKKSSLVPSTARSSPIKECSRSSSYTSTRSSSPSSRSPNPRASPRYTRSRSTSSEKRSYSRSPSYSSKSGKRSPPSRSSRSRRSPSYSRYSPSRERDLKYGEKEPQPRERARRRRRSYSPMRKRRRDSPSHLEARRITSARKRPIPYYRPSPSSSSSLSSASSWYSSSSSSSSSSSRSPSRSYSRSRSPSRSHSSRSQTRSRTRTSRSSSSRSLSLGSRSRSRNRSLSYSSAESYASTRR
# Text: A-H) Percent of neural-regulated exons within each length class that is affected at 15<|ΔPSI|<25 and |ΔPSI|>25 by (A) RBFOX1 knockdown in human neural precursor cells; (B) MBNL1 and MBNL2 double knockdown in human HeLa cells; (C) ESRP1 knockdown in human PNT2 cells; (D) nSR100/Srrm4 knockdown in mouse N2A cells; (E) Ptbp1 knockdown in mouse N2A cells; (F) Ptbp2 knockout in mouse cortex (P1 stage); (G) Ptbp2 knockout in mouse embryonic brain (18.5 days post-conception); and (H) Rbfox1 knockout. p values correspond to two-sided proportion tests of regulated versus non-regulated events. I) Expression of nSR100 in different isolated brain cell types (Zhang et al., 2014). Error bars indicate SEM. […]
# as §1
# as §2, with “site.” for “site. Intron retention was analyzed as recently described (Braunschweig et al., 2014).”
compound,measurement,setting,value
[Cl-].[K+] [KCl],decrease in nSR100 protein levels,"nSR100 [1]; 30 minutes into KCl treatment, DIV11 cortical neurons",2 fold
same,nSR100 mRNA levels,"nSR100 [1]; thirty minutes after depolarization, qRT-PCR",remain steady
same,number of alternative splicing events displaying changes,[2]; 30 minutes after KCl treatment,222
same,"microexons with increased skipping, share of all microexons",[2]; 3 hours of KCl treatment,14.7%
same,number of microexons with higher inclusion levels,[2]; 3 hours of KCl treatment,7
same,number of microexons with increased skipping (of 598 detected),[2]; 3 hours of KCl treatment,88
same,number of alternative splicing events displaying changes,[2]; 3 hours of KCl treatment,"1,829"
CC(C)C[C@@H](C=O)NC(=O)[C@H](CC(C)C)NC(=O)[C@H](CC(C)C)NC(=O)OCc1ccccc1 [MG132] (Cbz-Leu-Leu-Leu-aldehyde),nSR100 protein levels,nSR100 [3],increased levels of SRRM4; also recorded: significant increases in levels of nSR100
DTNB,Regulation by nSR100,nSR100 [4],YES (minimum threshold (PSI≥10) requirement for annotation as “YES”)
Dtnb,Regulation by nSR100,nSR100 [5]; threshold change of PSI≥10,YES
Sbf1,Regulation by nSR100,nSR100 [5]; YES/NO,YES
